{"source": "ChEMBL document CHEMBL2074144", "about": "“Pharmacokinetics of erythromycin in rabbit corneas after single-dose infusion: role of P-glycoprotein as a barrier to in vivo ocular drug absorption” (J Pharmacol Exp Ther, 2004)", "biological_target": "ATP-dependent translocase ABCB1 (Homo sapiens, UniProt P08183)", "sequence (P08183 whole entry)": "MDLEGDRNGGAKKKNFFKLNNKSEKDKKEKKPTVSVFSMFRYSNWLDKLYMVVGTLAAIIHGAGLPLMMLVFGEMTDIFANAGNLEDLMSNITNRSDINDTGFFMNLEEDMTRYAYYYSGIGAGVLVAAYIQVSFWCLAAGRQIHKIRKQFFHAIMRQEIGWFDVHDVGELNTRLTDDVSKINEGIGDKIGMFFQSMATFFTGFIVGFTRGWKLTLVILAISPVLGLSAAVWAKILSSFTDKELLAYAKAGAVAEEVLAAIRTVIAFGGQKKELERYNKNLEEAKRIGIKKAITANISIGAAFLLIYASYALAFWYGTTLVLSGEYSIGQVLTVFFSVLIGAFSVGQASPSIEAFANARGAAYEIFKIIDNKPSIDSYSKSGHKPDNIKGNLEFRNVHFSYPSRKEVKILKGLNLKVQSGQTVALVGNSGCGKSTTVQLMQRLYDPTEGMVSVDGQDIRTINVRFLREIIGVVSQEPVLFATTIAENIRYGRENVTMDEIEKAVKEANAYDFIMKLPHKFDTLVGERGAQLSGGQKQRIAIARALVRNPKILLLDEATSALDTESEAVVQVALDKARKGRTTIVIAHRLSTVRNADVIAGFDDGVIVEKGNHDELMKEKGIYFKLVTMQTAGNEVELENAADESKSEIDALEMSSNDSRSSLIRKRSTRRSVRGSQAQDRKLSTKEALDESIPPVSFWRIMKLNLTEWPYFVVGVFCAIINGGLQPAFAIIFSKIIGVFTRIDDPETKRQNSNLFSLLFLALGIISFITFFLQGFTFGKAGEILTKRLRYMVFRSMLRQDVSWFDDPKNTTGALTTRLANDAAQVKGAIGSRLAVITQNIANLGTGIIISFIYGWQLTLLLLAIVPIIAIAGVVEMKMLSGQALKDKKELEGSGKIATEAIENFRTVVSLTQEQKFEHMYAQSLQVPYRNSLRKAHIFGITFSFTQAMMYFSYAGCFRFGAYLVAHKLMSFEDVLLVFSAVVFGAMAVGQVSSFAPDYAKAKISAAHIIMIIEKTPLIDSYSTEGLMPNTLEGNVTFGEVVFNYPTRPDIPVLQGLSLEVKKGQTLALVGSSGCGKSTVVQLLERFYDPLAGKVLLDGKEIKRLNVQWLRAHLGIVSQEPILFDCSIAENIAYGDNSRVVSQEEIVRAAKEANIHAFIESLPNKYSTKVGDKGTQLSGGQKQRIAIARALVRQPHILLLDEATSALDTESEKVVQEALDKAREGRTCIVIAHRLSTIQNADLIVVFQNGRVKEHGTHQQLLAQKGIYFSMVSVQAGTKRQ", "test": "TP_TRANSPORTER: transepithelial transport in MDR1-expressing MDCK cells", "format": "functional, cell-based", "settings": "dog"}
{"smiles": "CC[C@H]1OC(=O)[C@H](C)[C@@H](O[C@H]2C[C@@](C)(OC)[C@@H](O)[C@H](C)O2)[C@H](C)[C@@H](O[C@@H]2O[C@H](C)C[C@H](N(C)C)[C@H]2O)[C@](C)(OC)C[C@@H](C)C(=O)[C@H](C)[C@@H](O)[C@]1(C)O", "note": "[CLARITHROMYCIN]", "values": [{"measurement": "Activity", "result": "substrate [+]"}]}
